Article PMC7714071, “Interaction of amyloid beta with humanin and acetylcholinesterase is modulated by ATP” (FEBS Open Bio, 2020)

Tested on: A549 cells
Assay: MTT cell viability, A549
Type: cell-based, human
Settings: 48 h, Fig. 7A; for effect of ATP on viability in HN-ID media: HN-immunodepleted media, versus no ATP; for effect on cell viability: control media, three experiments in triplicate
Procedure: Human NSCLC cell lines, A549 (ATCC CCL‐185) and H1299 (ATCC CRL‐5803), were purchased from the American Type Culture Collection (ATCC, Manassas, VA, USA). Cells were seeded as we reported earlier in 5 mL HyClone Dulbecco's modified Eagle's medium/nutrient mixture F‐12 (DMEM/F12) (GE Healthcare Life Sciences, Pittsburgh, PA, USA), supplemented with 10% Fetalgro bovine growth serum (FBS; RMBIO, Missoula, MT, USA), 50 U·mL^−1 penicillin, and […] streptomycin (Invitrogen, Life Technologies, Carlsbad, CA, USA) in 25‐cm^2 tissue culture flasks, and allowed to grow overnight in an incubator at 37 °C, 95% humidity, and 5% CO2. The cells were counted after trypan blue staining, with a hemocytometer.
The 3‐(4,5‐dimethylthiazol‐2‐yl)‐2,5‐diphenyl‐tetrazolium bromide (MTT) reduction assay (Sigma‐Aldrich), used to measure cell viability, was carried out as we reported earlier. Cells were seeded in 96‐well plates as indicated in 200 μL 10% FBS‐supplemented media per well and maintained overnight at 95% humidity and 5% CO2. After an overnight incubation, the media were replaced with 200 μL serum‐free media, and the cells were further incubated, without or with different treatments, for 24, 48, or 72 h. The final concentration of DMSO in each well never exceeded 0.1%. The cells were then incubated for 4 h with MTT (0.5 mg·mL^−1) in the dark. The media were carefully removed, and DMSO (100 μL) was added to dissolve the formazan crystals. The absorbance was measured at 570 nm in a plate reader. Untreated cells or wells containing only DMSO and media were used as a positive and negative control, respectively. Statistical analysis was conducted using […] PRISM version 8.4.3 for Windows. Significant values were considered at P < 0.05 and more significant values at P < 0.01, compared with the control.
Conditioned media were immunodepleted (ID) according to the methods previously described and our recently published report. Briefly, specific antibodies were bound to ELISA wells overnight (1 : 1000 dilution). The wells were then blocked and washed, then 300 μL of the conditioned medium (0.5 μg·μL^−1) treated as indicated, 72 h postserum starvation, was incubated with the antibodies bound to ELISA wells for 24 h. The ID media were then carefully removed and analyzed for the presence of the target protein or peptide by ELISA. The same amount of protein (3 µL of 600 µg·mL^−1 total protein) of each sample was analyzed in the experiments. Significant depletion (95–100%) was observed upon using each of the antibodies employed in this study.
Since addition of ATP appears to increase binding of HN to Aβ, and conversely, decreases the interaction of Aβ with AChE (Figs 3, 4, 5, 6), we tested the effect of added ATP on A549 and H1299 cell viability (Fig. 7). Exogenously added ATP at either 100 µM or 1 mM had no effect on viability of either A549 (Fig. 7A) or H1299 cells (Fig. 7B). […] To determine the effect of ID of AChE or HN in the absence or presence of added ATP on cell viability, ID media were prepared by first seeding 0.2 × 10^5 cells per well in 96‐well plates in 10% FBS‐supplemented media. The next day, the cells were incubated in serum‐free medium for 72 h, then ID of AChE or HN as described in Materials and methods. For cell viability assays, cells were seeded in 96‐well plates at 0.2 × 10^5 cells per well in 200 µL 10% FBS‐supplemented media followed by incubation in serum‐free medium for 12 h, then treated with the ID media for 48 h. […]

SMILES: Nc1ncnc2c1ncn2[C@@H]1O[C@H](COP(=O)(O)OP(=O)(O)OP(=O)(O)O)[C@@H](O)[C@H]1O [ATP, Adenosine triphosphate]
- effect of ATP on viability in AChE-depleted media (AChE-immunodepleted media): did not affect cell viability
- effect of ATP on viability in HN-ID media (ATP 100 µM): No change in cell viability
- effect on cell viability (ATP 100 µM): no effect
- effect of ATP on viability in HN-ID media (ATP 1 mM): No change in cell viability
- effect on cell viability (ATP 1 mM): no effect
